Columns and labels:
[1] = target: hSERT (human serotonin transporter) (Homo sapiens, UniProt P31645, M370L); test: cell-based; set-up: species or system HEK-293, transiently transfected
[2] = target: hSERT V367I (Homo sapiens, UniProt P31645, V367I); test: cell-based; set-up: species or system HEK-293, transiently transfected
hSERT V367I, sequence (P31645 whole entry V367I): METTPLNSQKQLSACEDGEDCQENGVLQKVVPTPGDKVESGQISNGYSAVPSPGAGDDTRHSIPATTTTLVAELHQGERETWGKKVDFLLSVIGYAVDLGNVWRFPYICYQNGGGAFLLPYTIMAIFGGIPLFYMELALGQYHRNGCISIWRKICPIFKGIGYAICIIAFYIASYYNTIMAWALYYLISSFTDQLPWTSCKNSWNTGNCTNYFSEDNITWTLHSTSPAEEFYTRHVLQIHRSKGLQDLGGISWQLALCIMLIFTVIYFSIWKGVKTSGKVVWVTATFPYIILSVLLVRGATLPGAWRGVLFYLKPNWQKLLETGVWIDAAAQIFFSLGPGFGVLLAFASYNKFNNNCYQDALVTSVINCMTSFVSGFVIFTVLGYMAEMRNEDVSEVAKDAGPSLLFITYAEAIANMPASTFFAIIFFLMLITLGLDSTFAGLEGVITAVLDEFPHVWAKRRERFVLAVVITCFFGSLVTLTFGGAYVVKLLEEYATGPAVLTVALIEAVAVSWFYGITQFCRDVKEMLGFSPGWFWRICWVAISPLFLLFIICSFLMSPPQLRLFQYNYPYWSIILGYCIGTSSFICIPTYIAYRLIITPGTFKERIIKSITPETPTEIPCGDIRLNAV

hSERT (human serotonin transporter), sequence (P31645 whole entry M370L): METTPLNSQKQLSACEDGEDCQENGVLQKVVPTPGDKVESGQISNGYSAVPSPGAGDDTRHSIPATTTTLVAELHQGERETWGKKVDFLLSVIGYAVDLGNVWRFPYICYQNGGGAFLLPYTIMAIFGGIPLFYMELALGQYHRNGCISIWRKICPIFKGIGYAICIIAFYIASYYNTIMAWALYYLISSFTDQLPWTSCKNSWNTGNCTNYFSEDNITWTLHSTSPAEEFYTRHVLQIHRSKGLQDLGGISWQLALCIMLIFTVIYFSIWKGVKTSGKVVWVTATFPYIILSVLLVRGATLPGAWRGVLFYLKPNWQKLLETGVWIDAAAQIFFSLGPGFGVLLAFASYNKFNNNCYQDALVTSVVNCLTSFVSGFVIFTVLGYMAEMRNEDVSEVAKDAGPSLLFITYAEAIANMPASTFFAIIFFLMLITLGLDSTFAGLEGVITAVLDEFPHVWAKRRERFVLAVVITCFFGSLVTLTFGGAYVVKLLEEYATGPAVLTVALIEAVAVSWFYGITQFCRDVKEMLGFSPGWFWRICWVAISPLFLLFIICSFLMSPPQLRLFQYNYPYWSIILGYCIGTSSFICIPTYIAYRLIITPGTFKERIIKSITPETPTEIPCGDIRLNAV

In the case of `COC(=O)[C@H]1[C@@H](c2ccc(I)cc2)C[C@@H]2CC[C@H]1N2C` [RTI-55], the Ki [1] is reported as 16 ± 2 nM and the Ki [2] is reported as 16 ± 6 nM.

From PMC2942994 (Biochemical pharmacology, 2010)
